Results as given in patent US10294202B2, “Pyrrolidinones as herbicides” (FMC Corporation, priority 2013, dated 2019).

Legend:
barnyardgrass [1] = assay: Test A pre-/postemergence herbicide test; type: in vivo, Echinochloa crus-galli
Outline: (§1)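 Both application timings used compounds in a non-phytotoxic solvent plus surfactant. Pre-emergence: soil sprayed directly after seeding into loam/sand. Post-emergence: foliage of 2–10 cm seedlings (1–2 leaves) sprayed. Injury rated ~10 days later, 0–100.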

crabgrass, large = assay: Test A pre-/postemergence herbicide test; type: in vivo, Digitaria sanguinalis
Outline: as §1

giant foxtail = assay: Test A pre-/postemergence herbicide test; type: in vivo, Setaria faberii
Outline: as §1

morningglory = assay: Test A pre-/postemergence herbicide test; type: in vivo, Ipomoea spp.
Outline: as §1

pigweed = assay: Test A pre-/postemergence herbicide test; type: in vivo, Amaranthus retroflexus
Outline: as §1

velvetleaf = assay: Test A pre-/postemergence herbicide test; type: in vivo, Abutilon theophrasti
Outline: as §1

wheat = assay: Test A pre-/postemergence herbicide test; type: in vivo, Triticum aestivum
Outline: as §1

corn = assay: Test A pre-/postemergence herbicide test; type: in vivo, Zea mays
Outline: as §1

rice = assay: Test B flooded paddy test; type: in vivo, Oryza sativa; settings: Flood, scale of 0 to 100 where 0 is no effect and 100 is complete control
Protocol: (§2) Plant species in the flooded paddy test selected from rice (Oryza sativa), sedge, umbrella (small-flower umbrella sedge, Cyperus difformis), ducksalad (Heteranthera limosa), and barnyardgrass (Echinochloa crus-galli) were grown to the 2-leaf stage for testing. At time of treatment, test pots were flooded to 3 cm above the soil surface, treated by application of test compounds directly to the paddy water, and then maintained at that water depth for the duration of the test. Treated plants and controls were maintained in a greenhouse for 13 to 15 days, after which time all species were compared to controls and visually evaluated. Plant response ratings, summarized in Table B, are based on a scale of 0 to 100 where 0 is no effect and 100 is complete control. A dash (-) response means no test result.

sedge, umbrella = assay: Test B flooded paddy test; type: in vivo, Cyperus difformis; settings: Flood, scale of 0 to 100 where 0 is no effect and 100 is complete control
Protocol: as §2

ducksalad = assay: Test B flooded paddy test; type: in vivo, Heteranthera limosa; settings: Flood, scale of 0 to 100 where 0 is no effect and 100 is complete control
Outline: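 2-leaf plants; flood 3 cm over soil; compound into paddy water; depth held. Greenhouse 13–15 d. Visual rating vs controls, 0 (no effect) to 100 (complete control); dash = not tested.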

barnyardgrass [2] = assay: Test B flooded paddy test; type: in vivo, Echinochloa crus-galli; settings: Flood, scale of 0 to 100 where 0 is no effect and 100 is complete control
Protocol: as §2

[3] = Postemergence, 125 g ai/ha, 0 to 100 scale, 0 no effect, 100 complete control
[4] = Postemergence, 500 g ai/ha, 0 to 100 scale (0 no effect, 100 complete control)
[5] = Preemergence, 125 g ai/ha, visual rating on 0 to 100 scale (0 no effect, 100 complete control)
[6] = preemergence, 500 g ai/ha, 0 to 100 scale (0 no effect, 100 complete control)
[7] = preemergence, 500 g ai/ha, 0 to 100 scale
[8] = Postemergence, 1000 g ai/ha, 0 to 100 scale (0 no effect, 100 complete control)
[9] = Preemergence, 1000 g ai/ha, visual rating on 0 to 100 scale (0 no effect, 100 complete control), approx. 10 days

O=C1NCC(c2ccc3c(c2)OC(F)(F)O3)C1C(=O)Nc1ccccc1C(F)(F)F (racemic) [Compound 75]
Plant response rating, Barnyardgrass (barnyardgrass [1]; [3]): 40 | Plant response rating, Barnyardgrass (barnyardgrass [1]; [4]): 70 | Barnyardgrass plant response rating (barnyardgrass [1]; [5]): 50 | Plant response rating, Barnyardgrass (barnyardgrass [1]; [6]): 70 | Plant response rating, Crabgrass, Large (crabgrass, large; [3]): 60 | Plant response rating, Crabgrass, Large (crabgrass, large; [4]): 80 | Crabgrass, Large plant response rating (crabgrass, large; [5]): 90 | Plant response rating, Crabgrass, Large (crabgrass, large; [7]): 90 | Plant response rating, Foxtail, Giant (giant foxtail; [3]): 70 | Plant response rating, Foxtail, Giant (giant foxtail; [4]): 80 | Foxtail, Giant plant response rating (giant foxtail; [5]): 80 | Plant response rating, Foxtail, Giant (giant foxtail; [7]): 90 | Plant response rating, Morningglory (morningglory; [3]): 0 | Plant response rating, Morningglory (morningglory; [4]): 0 | Morningglory plant response rating (morningglory; [5]): 0 | Plant response rating, Morningglory (morningglory; [7]): 0 | Plant response rating, Pigweed (pigweed; [3]): 0 | Plant response rating, Pigweed (pigweed; [4]): 0 | Pigweed plant response rating (pigweed; [5]): 0 | Plant response rating, Pigweed (pigweed; [7]): 0 | Plant response rating, Velvetleaf (velvetleaf; [3]): 10 | Plant response rating, Velvetleaf (velvetleaf; [4]): 20 | Velvetleaf plant response rating (velvetleaf; [5]): 0 | Plant response rating, Velvetleaf (velvetleaf; [7]): 0 | Plant response rating, Wheat (wheat; [3]): 0 | Plant response rating, Wheat (wheat; [4]): 30 | Wheat plant response rating (wheat; [5]): 0 | Plant response rating, Wheat (wheat; [7]): 30 | Plant response rating, Corn (corn; [3]): 0 | Plant response rating, Corn (corn; [4]): 0 | Corn plant response rating (corn; [5]): 0 | Plant response rating, Corn (corn; [7]): 0 | Plant response rating, Rice (rice; 250 g ai/ha): 0 | Plant response rating, Sedge, Umbrella (sedge, umbrella; 250 g ai/ha): 0 | Plant response rating, Ducksalad (ducksalad; 250 g ai/ha): 0 | Plant response rating, Barnyardgrass (barnyardgrass [2]; 250 g ai/ha): 0

O=C1NCC(c2ccccc2)C1C(=O)Nc1ccccc1Cl (racemic) [Compound 83]
Plant response rating, Barnyardgrass (barnyardgrass [1]; [4]): 60 | Barnyardgrass plant response rating (barnyardgrass [1]; [5]): 0 | Plant response rating, Barnyardgrass (barnyardgrass [1]; [6]): 50 | Plant response rating, Crabgrass, Large (crabgrass, large; [3]): 20 | Plant response rating, Crabgrass, Large (crabgrass, large; [4]): 70 | Crabgrass, Large plant response rating (crabgrass, large; [5]): 70 | Plant response rating, Crabgrass, Large (crabgrass, large; [7]): 90 | Plant response rating, Foxtail, Giant (giant foxtail; [3]): 0 | Plant response rating, Foxtail, Giant (giant foxtail; [4]): 50 | Foxtail, Giant plant response rating (giant foxtail; [5]): 0 | Plant response rating, Foxtail, Giant (giant foxtail; [7]): 70 | Plant response rating, Morningglory (morningglory; [3]): 0 | Plant response rating, Morningglory (morningglory; [4]): 0 | Morningglory plant response rating (morningglory; [5]): 0 | Plant response rating, Morningglory (morningglory; [7]): 0 | Plant response rating, Pigweed (pigweed; [3]): 0 | Plant response rating, Pigweed (pigweed; [4]): 0 | Pigweed plant response rating (pigweed; [5]): 0 | Plant response rating, Pigweed (pigweed; [7]): 0 | Plant response rating, Velvetleaf (velvetleaf; [3]): 0 | Plant response rating, Velvetleaf (velvetleaf; [4]): 0 | Velvetleaf plant response rating (velvetleaf; [5]): 0 | Plant response rating, Velvetleaf (velvetleaf; [7]): 0 | Plant response rating, Wheat (wheat; [3]): 0 | Plant response rating, Wheat (wheat; [4]): 0 | Wheat plant response rating (wheat; [5]): 0 | Plant response rating, Wheat (wheat; [7]): 0 | Plant response rating, Corn (corn; [3]): 0 | Plant response rating, Corn (corn; [4]): 0 | Corn plant response rating (corn; [5]): 0 | Plant response rating, Corn (corn; [7]): 0 | Plant response rating, Rice (rice; 250 g ai/ha): 0 | Plant response rating, Sedge, Umbrella (sedge, umbrella; 250 g ai/ha): 0 | Plant response rating, Ducksalad (ducksalad; 250 g ai/ha): 50 | Plant response rating, Barnyardgrass (barnyardgrass [2]; 250 g ai/ha): 30

O=C1NCC(c2ccccc2)C1C(=O)Nc1ccc(Br)cc1F (racemic) [Compound 84]
Plant response rating, Barnyardgrass (barnyardgrass [1]; [3]): 0 | Plant response rating, Barnyardgrass (barnyardgrass [1]; [4]): 0 | Barnyardgrass plant response rating (barnyardgrass [1]; [5]): 0 | Plant response rating, Barnyardgrass (barnyardgrass [1]; [6]): 0 | Plant response rating, Crabgrass, Large (crabgrass, large; [3]): 0 | Plant response rating, Crabgrass, Large (crabgrass, large; [4]): 20 | Crabgrass, Large plant response rating (crabgrass, large; [5]): 0 | Plant response rating, Crabgrass, Large (crabgrass, large; [7]): 50 | Plant response rating, Foxtail, Giant (giant foxtail; [3]): 0 | Plant response rating, Foxtail, Giant (giant foxtail; [4]): 0 | Foxtail, Giant plant response rating (giant foxtail; [5]): 0 | Plant response rating, Foxtail, Giant (giant foxtail; [7]): 0 | Plant response rating, Morningglory (morningglory; [3]): 0 | Plant response rating, Morningglory (morningglory; [4]): 0 | Morningglory plant response rating (morningglory; [5]): 0 | Plant response rating, Morningglory (morningglory; [7]): 0 | Plant response rating, Pigweed (pigweed; [3]): 0 | Plant response rating, Pigweed (pigweed; [4]): 0 | Pigweed plant response rating (pigweed; [5]): 0 | Plant response rating, Pigweed (pigweed; [7]): 0 | Plant response rating, Velvetleaf (velvetleaf; [3]): 0 | Plant response rating, Velvetleaf (velvetleaf; [4]): 0 | Velvetleaf plant response rating (velvetleaf; [5]): 0 | Plant response rating, Velvetleaf (velvetleaf; [7]): 0 | Plant response rating, Wheat (wheat; [3]): 0 | Plant response rating, Wheat (wheat; [4]): 0 | Wheat plant response rating (wheat; [5]): 0 | Plant response rating, Wheat (wheat; [7]): 0 | Plant response rating, Corn (corn; [3]): 0 | Plant response rating, Corn (corn; [4]): 0 | Corn plant response rating (corn; [5]): 0 | Plant response rating, Corn (corn; [7]): 0 | Plant response rating, Rice (rice; 250 g ai/ha): 0 | Plant response rating, Sedge, Umbrella (sedge, umbrella; 250 g ai/ha): 0 | Plant response rating, Ducksalad (ducksalad; 250 g ai/ha): 0 | Plant response rating, Barnyardgrass (barnyardgrass [2]; 250 g ai/ha): 0

O=C1NCC(c2ccc(F)c(F)c2)C1C(=O)Nc1cccnc1C(F)(F)F (racemic) [Compound 98]
Plant response rating, Barnyardgrass (barnyardgrass [1]; [8]): 50 | Plant response rating, Barnyardgrass (barnyardgrass [1]; [9]): 50 | Plant response rating, Crabgrass, Large (crabgrass, large; [8]): 90 | Plant response rating, Crabgrass, Large (crabgrass, large; [9]): 90 | Plant response rating, Foxtail, Giant (giant foxtail; [8]): 60 | Plant response rating, Foxtail, Giant (giant foxtail; [9]): 90 | Plant response rating, Morningglory (morningglory; [8]): 0 | Plant response rating, Morningglory (morningglory; [9]): 0 | Plant response rating, Pigweed (pigweed; [8]): 0 | Plant response rating, Pigweed (pigweed; [9]): 0 | Plant response rating, Velvetleaf (velvetleaf; [8]): 10 | Plant response rating, Velvetleaf (velvetleaf; [9]): 0 | Plant response rating, Wheat (wheat; [8]): 20 | Plant response rating, Wheat (wheat; [9]): 0 | Plant response rating, Corn (corn; [8]): 0 | Plant response rating, Corn (corn; [9]): 20 | Plant response rating, Rice (rice; 1000 g ai/ha): 0 | Plant response rating, Sedge, Umbrella (sedge, umbrella; 1000 g ai/ha): 0 | Plant response rating, Ducksalad (ducksalad; 1000 g ai/ha): 90 | Plant response rating, Barnyardgrass (barnyardgrass [2]; 1000 g ai/ha): 0

Cc1c(Cl)cccc1NC(=O)C1C(=O)NCC1c1ccc(F)c(F)c1 (racemic) [Compound 100]
Plant response rating, Barnyardgrass (barnyardgrass [1]; [8]): 80 | Plant response rating, Barnyardgrass (barnyardgrass [1]; [9]): 90 | Plant response rating, Crabgrass, Large (crabgrass, large; [8]): 90 | Plant response rating, Crabgrass, Large (crabgrass, large; [9]): 90 | Plant response rating, Foxtail, Giant (giant foxtail; [8]): 80 | Plant response rating, Foxtail, Giant (giant foxtail; [9]): 90 | Plant response rating, Morningglory (morningglory; [8]): 0 | Plant response rating, Morningglory (morningglory; [9]): 0 | Plant response rating, Pigweed (pigweed; [8]): 0 | Plant response rating, Pigweed (pigweed; [9]): 0 | Plant response rating, Velvetleaf (velvetleaf; [8]): 0 | Plant response rating, Velvetleaf (velvetleaf; [9]): 0 | Plant response rating, Wheat (wheat; [8]): 30 | Plant response rating, Wheat (wheat; [9]): 20 | Plant response rating, Corn (corn; [8]): 40 | Plant response rating, Corn (corn; [9]): 20 | Plant response rating, Rice (rice; 1000 g ai/ha): 0 | Plant response rating, Sedge, Umbrella (sedge, umbrella; 1000 g ai/ha): 0 | Plant response rating, Ducksalad (ducksalad; 1000 g ai/ha): 75 | Plant response rating, Barnyardgrass (barnyardgrass [2]; 1000 g ai/ha): 25
